ChEMBL document CHEMBL4665786, “Cellular Target Proteome in Breast Cancer Cells of an Oplopane Sesquiterpenoid Isolated from Tussilago farfara” (J Nat Prod, 2020)
pIC50: −log10 of the molar value.

What was measured:
[1] = tested on: MDA-MB-231; test: Antiproliferative activity against human MDA-MB-231 cells by MTT assay; type: functional, cell-based
[2] = tested on: MCF7; test: Antiproliferative activity against human MCF7 cells by MTT assay; type: functional, cell-based

| pIC50 [1] | pIC50 [2] | SMILES |
| --- | --- | --- |
| < 5.00 | < 5.00 | C=C(C1[C@H](OC(C)=O)C(=O)[C@@]2(C)O[C@H]2[C@@H]1OC(C)=O)[C@H](CC=C(C)C)OC(=O)/C(C)=C\C (stereo partly specified) |
| < 5.00 | < 5.00 | C=C(C1C[C@@H]2O[C@]2(C)C(=O)[C@H]1OC(=O)/C(C)=C\C)[C@H](CC=C(C)C)OC(=O)/C(C)=C\C (stereo partly specified) |
| < 4.05 |  | C=C1[C@H]2[C@@H](C(C(C)OC)C(=O)[C@H]2OC(=O)C(C)CC)[C@H](C(C)C)C[C@H]1OC(=O)/C=C(\C)CC (stereo partly specified) |
| 4.95 |  | C=C1[C@@H]2C(O)C(=O)/C(=C\C)[C@H]2[C@H](C(C)C)C[C@H]1OC(=O)/C=C(\C)CC (stereo partly specified) |
| < 5.00 | < 5.00 | C=C(C1C[C@@H]2O[C@]2(C)C(=O)[C@H]1OC(C)=O)[C@H](CC=C(C)C)OC(=O)/C(C)=C\C (stereo partly specified) |
| 5.07 | 4.75 | C/C=C1\C(=O)[C@@H](OC(=O)C(C)CC)[C@@H]2[C@@H]1[C@H](C(C)C)C[C@@H](OC(=O)/C=C(\C)CC)C21CO1 (stereo partly specified) |
| < 5.00 | < 5.00 | C=C1[C@H](OC(=O)/C=C(\C)CC)C[C@@H](C(C)C)[C@@H]2/C(=C\C)C(=O)C[C@@H]12 |
| < 5.00 | < 5.00 | C=C1[C@H](OC(=O)/C=C(\C)CC)C[C@@H](C(C)C)[C@@H]2/C(=C/C)C(=O)C[C@@H]12 |
| 5.14 | 4.89 | C=C1[C@H]2[C@@H]([C@@H]([C@H](C)OC(C)=O)C(=O)[C@H]2OC(=O)C(C)CC)[C@H](C(C)C)C[C@H]1OC(=O)/C=C(\C)CC (stereo partly specified) |
| 5.26 | 4.85 | C/C=C1\C(=O)[C@@H](OC(=O)C(C)CC)[C@@H]2[C@@H]1[C@H](C(C)C)C[C@@H](OC(=O)/C=C(\C)CC)C2(O)CN=[N+]=[N-] (stereo partly specified) |
| < 4.05 |  | C=C1[C@@H]2C(O)C(=O)C(C(C)OC)[C@H]2[C@H](C(C)C)C[C@H]1OC(=O)/C=C(\C)CC (stereo partly specified) |
| < 5.00 | < 5.00 | C=C1[C@H](OC(=O)/C=C(\C)CC)C[C@@H](C(C)C)[C@@H]2[C@@H]([C@H](C)OC(C)=O)C(=O)C[C@@H]12 |
